Assay results reported in patent US11440923B2, “Substituted macrocyclic indole derivatives” (Bayer Aktiengesellschaft, priority 2017, dated 2022).
Counter-ions that a name gives are not always drawn. Like-named read-outs stand apart in the source and are kept apart here.

What was measured:
SUDHL10 cells = experiment: Induction of cytotoxicity in SUDHL10 cells (Assay 6); assay type: cell-based; details: 5 h, CellTiter-Glo, read-out: Cytotox SUDHL10 IC50 (median)
Method in brief: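 Following overnight seeding at 37 °C, cells are treated with compound for 5 h, after which CellTiter-Glo reagent is added and luminescence measured following a 15 min room-temperature shake.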

MCL-1 = MCL-1 (Homo sapiens (Human), UniProt Q07820, K194A/K197A/R201A); experiment: Protein-protein interaction assay MCL-1/Noxa BH3 peptide (MCL-1 assay, TR-FRET); assay type: binding; details: MCL-1 Assay IC50 (median)
Sequence of MCL-1 (Q07820 whole entry, looked up, stated change not applied, the tested form may be a part): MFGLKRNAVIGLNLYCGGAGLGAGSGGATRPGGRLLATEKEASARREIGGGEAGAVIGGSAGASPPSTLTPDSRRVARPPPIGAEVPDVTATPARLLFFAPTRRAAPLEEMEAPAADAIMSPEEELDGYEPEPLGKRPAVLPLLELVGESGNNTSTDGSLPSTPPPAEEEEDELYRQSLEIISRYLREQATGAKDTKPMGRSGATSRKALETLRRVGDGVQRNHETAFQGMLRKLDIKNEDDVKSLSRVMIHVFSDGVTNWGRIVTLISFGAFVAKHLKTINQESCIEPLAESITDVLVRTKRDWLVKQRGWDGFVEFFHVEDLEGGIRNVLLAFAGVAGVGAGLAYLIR
Method in brief: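 Competition TR-FRET with MBP-MCL-1 (aa 173-321) at 1 nM final and biotinylated Noxa BH3 peptide, pH 7 Tris buffer. Compounds pre-incubated 10 min at 22° C., then 1 h at 22° C. and overnight at 4° C. 665/620 nm ratio normalized to DMSO; IC50 from 4-parameter fit.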

IC50 (MCL-1) [nM] | SMILES | IC50 (SUDHL10 cells; Homo sapiens, SU-DHL10, 5 h) [nM] | IC50 (SUDHL10 cells) [nM]
2.2 | Cc1c2c(nn1C)C(C)OCCCCn1c(C(=O)O)c(CCCOc3cccc4ccccc34)c3cccc-2c31 (racemic) [Example 1, (rac)-2,3,15-trimethyl-7-[3-(naphthalen-1-yloxy)propyl]-2,10,11,12,13,15-hexahydropyrazolo[4′,3′:9,10][1,6]oxazacycloundecino[8,7,6-hi]indole-8-carboxylic Acid (Mixture of Stereoisomers)] | 6600 | –
0.66 | Cc1c2c(nn1C)C(CCN1CCOCC1)OCCCCn1c(C(=O)O)c(CCCOc3cccc4ccccc34)c3ccc(F)c-2c31 (racemic) [Example 7, (rac)-4-fluoro-2,3-dimethyl-15-[2-(morpholin-4-yl)ethyl]-7-[3-(naphthalen-1-yloxy)propyl]-2,10,11,12,13,15-hexahydropyrazolo[4′,3′:9,10][1,6]oxazacycloundecino[8,7,6-hi]indole-8-carboxylic Acid] | 380 | –
1.6 | Cc1c2c(nn1C)C(CCN1CCOCC1)OCCCCn1c(C(=O)O)c(CCCOc3cccc4ccccc34)c3ccc(Cl)c-2c31 (racemic) [Example 13, (rac)-4-chloro-2,3-dimethyl-15-[2-(morpholin-4-yl)ethyl]-7-{3-[(naphthalen-1-yl)oxy]propyl}-2,10,11,12,13,15-hexahydropyrazolo[4′,3′:9,10][1,6]oxazacycloundecino[8,7,6-hi]indole-8-carboxylic Acid] | 210 | –
1.1 | Cc1c2c(nn1C)C(CCO)OCCCCn1c(C(=O)O)c(CCCOc3cccc4ccccc34)c3ccc(Cl)c-2c31 (racemic) [Example 26, (rac)-4-chloro-15-(2-hydroxyethyl)-2,3-dimethyl-7-{3-[(naphthalen-1-yl)oxy]propyl}-2,10,11,12,13,15-hexahydropyrazolo[4′,3′:9,10][1,6]oxazacycloundecino[8,7,6-hi]indole-8-carboxylic Acid] | 870 | –
3.8 | CCc1c2c(nn1C)C(C(F)(F)F)OCCCCn1c(C(=O)O)c(CCCOc3cccc4ccccc34)c3ccc(Cl)c-2c31 (racemic) [Example 27, (rac)-4-Chloro-3-ethyl-2-methyl-7-{3-[(naphthalen-1-yl)oxy]propyl}-15-(trifluoromethyl)-2,10,11,12,13,15-hexahydropyrazolo[4′,3′:9,10][1,6]oxazacycloundecino[8,7,6-hi]indole-8-carboxylic Acid] | 9600 | –
1.1 | Cc1c2c(nn1C)C(C1CC1)OCCCCn1c(C(=O)O)c(CCCOc3cccc4ccccc34)c3ccc(Cl)c-2c31 (racemic) [Example 28, (rac)-4-Chloro-15-cyclopropyl-2,3-dimethyl-7-{3-[(naphthalen-1-yl)oxy]propyl}-2,10,11,12,13,15-hexahydropyrazolo[4′,3′:9,10][1,6]oxazacycloundecino[8,7,6-hi]indole-8-carboxylic Acid] | 8400 | –
– | Cc1c2c(nn1C)C(CCN1CCOCC1)OCCCCn1c(C(=O)O)c(CCCOc3cccc4ccccc34)c3ccc(F)c-2c31 (single isomer, unassigned; enantiomer 2) [Example 9, 4-fluoro-2,3-dimethyl-15-[2-(morpholin-4-yl)ethyl]-7-{3-[(naphthalen-1-yl)oxy]propyl}-2,10,11,12,13,15-hexahydropyrazolo[4′,3′:9,10][1,6]oxazacycloundecino[8,7,6-hi]indole-8-carboxylic Acid—N-ethylethanamine Salt (Enantiomer 2)] | – | 16000
– | CCc1c2c(nn1C)C(CCN1CCOCC1)OCCCCn1c(C(=O)O)c(CCCOc3cccc4ccccc34)c3ccc(F)c-2c31 (single isomer, unassigned; enantiomer 2) [Example 12, 3-ethyl-4-fluoro-2-methyl-15-[2-(morpholin-4-yl)ethyl]-7-{3-[(naphthalen-1-yl)oxy]propyl}-2,10,11,12,13,15-hexahydropyrazolo[4′,3′:9,10][1,6]oxazacycloundecino[8,7,6-hi]indole-8-carboxylic Acid—N-ethylethanamine Salt (Enantiomer 2)] | – | 8100
– | CCC1OCCCCn2c(C(=O)O)c(CCCOc3cccc4ccccc34)c3ccc(Cl)c(c32)-c2c1nn(C)c2C (single isomer, unassigned; enantiomer 2) [Example 30, (−)-4-chloro-15-ethyl-2,3-dimethyl-7-{3-[(naphthalen-1-yl)oxy]propyl}-2,10,11,12,13,15-hexahydropyrazolo[4′,3′:9,10][1,6]oxazacycloundecino[8,7,6-hi]indole-8-carboxylic Acid—N-ethylethanamine Salt (Enantiomer 2)] | – | > 33000
– | Cc1c2c(nn1C)C(C1CC1)OCCCCn1c(C(=O)O)c(CCCOc3cccc4ccccc34)c3ccc(Cl)c-2c31 (single isomer, unassigned; enantiomer 2) [Example 36, (−)-4-chloro-15-cyclopropyl-2,3-dimethyl-7-{3-[(naphthalen-1-yl)oxy]propyl}-2,10,11,12,13,15-hexahydropyrazolo[4′,3′:9,10][1,6]oxazacycloundecino[8,7,6-hi]indole-8-carboxylic Acid N-ethylethanamine Salt (Enantiomer 2)] | – | 27000
– | CCc1c2c(nn1C)C(CCOC)OCCCCn1c(C(=O)O)c(CCCOc3cccc4cc(F)ccc34)c3ccc(Cl)c-2c31 (single isomer, unassigned; enantiomer 2) [Example 43, (−)-4-chloro-3-ethyl-7-{3-[(6-fluoronaphthalen-1-yl)oxy]propyl}-15-(2-methoxyethyl)-2-methyl-2,10,11,12,13,15-hexahydropyrazolo[4′,3′:9,10][1,6]oxazacycloundecino[8,7,6-hi]indole-8-carboxylic Acid—N-ethylethanamine Salt (Enantiomer 2)] | – | 19000
– | CCc1c2c(nn1C)C(CCN1CCC(F)(F)C1)OCCCCn1c(C(=O)O)c(CCCOc3cccc4cc(F)ccc34)c3ccc(Cl)c-2c31 (single isomer, unassigned; enantiomer 2) [Example 57, 4-chloro-15-[2-(3,3-difluoropyrrolidin-1-yl)ethyl]-3-ethyl-7-{3-[(6-fluoronaphthalen-1-yl)oxy]propyl}-2-methyl-2,10,11,12,13,15-hexahydropyrazolo[4′,3′:9,10][1,6]oxazacycloundecino[8,7,6-hi]indole-8-carboxylic Acid N-ethylethanamine Salt (Enantiomer 2)] | – | 10000
– | CCc1c2c(nn1C)C(CC(C)(C)O)OCCCCn1c(C(=O)O)c(CCCOc3cccc4cc(F)ccc34)c3ccc(Cl)c-2c31 (single isomer, unassigned; enantiomer 21) [Example 54, (−)-4-chloro-3-ethyl-7-{3-[(6-fluoronaphthalen-1-yl)oxy]propyl}-15-(2-hydroxy-2-methylpropyl)-2-methyl-2,10,11,12,13,15-hexahydropyrazolo[4′,3′:9,10][1,6]oxazacycloundecino[8,7,6-hi]indole-8-carboxylic Acid—N-ethylethanamine Salt (Enantiomer 21] | – | 17000

SMILES | IC50 (MCL-1) [nM] | IC50 (SUDHL10 cells; Homo sapiens, SU-DHL10, 5 h) [nM] | IC50 (SUDHL10 cells) [nM]
CCc1c2c(nn1C)C(CCN1CCOCC1)OCCCCn1c(C(=O)O)c(CCCOc3cccc4ccccc34)c3ccc(F)c-2c31 (racemic) [Example 10, (rac)-3-ethyl-4-fluoro-2-methyl-15-[2-(morpholin-4-yl)ethyl]-7-[3-(naphthalen-1-yloxy)propyl]-2,10,11,12,13,15-hexahydropyrazolo[4′,3′:9,10][1,6]oxazacycloundecino[8,7,6-hi]indole-8-carboxylic Acid] | 0.72 | 300 | –
Cc1c2c(nn1C)C(CCN1CCOCC1)OCCCCn1c(C(=O)O)c(CCCOc3cccc4cc(F)ccc34)c3ccc(Cl)c-2c31 (racemic) [Example 16, (rac)-4-chloro-7-{3-[(6-fluoronaphthalen-1-yl)oxy]propyl}-2,3-dimethyl-15-[2-(morpholin-4-yl)ethyl]-2,10,11,12,13,15-hexahydropyrazolo[4′,3′:9,10][1,6]oxazacycloundecino[8,7,6-hi]indole-8-carboxylic Acid] | 2 | 22 | –
Cc1c2c(nn1C)C(CCN1CCOCC1)OCCCCn1c(C(=O)O)c(CCCOc3cccc4cc(F)ccc34)c3ccc(F)c-2c31 (racemic) [Example 19, (rac)-4-fluoro-7-{3-[(6-fluoronaphthalen-1-yl)oxy]propyl}-2,3-dimethyl-15-[2-(morpholin-4-yl)ethyl]-2,10,11,12,13,15-hexahydropyrazolo[4′,3′:9,10][1,6]oxazacycloundecino[8,7,6-hi]indole-8-carboxylic Acid] | 1.6 | 110 | –
CCc1c2c(nn1C)C(CCN1CCOCC1)OCCCCn1c(C(=O)O)c(CCCOc3cccc4cc(F)ccc34)c3ccc(Cl)c-2c31 (racemic) [Example 22, (rac)-4-chloro-3-ethyl-7-{3-[(6-fluoronaphthalen-1-yl)oxy]propyl}-2-methyl-15-[2-(morpholin-4-yl)ethyl]-2,10,11,12,13,15-hexahydropyrazolo[4′,3′:9,10][1,6]oxazacycloundecino[8,7,6-hi]indole-8-carboxylic Acid] | 1.5 | 28 | –
CCC1OCCCCn2c(C(=O)O)c(CCCOc3cccc4ccccc34)c3ccc(Cl)c(c32)-c2c1nn(C)c2C (racemic) [Example 25, (rac)-4-chloro-15-ethyl-2,3-dimethyl-7-{3-[(naphthalen-1-yl)oxy]propyl}-2,10,11,12,13,15-hexahydropyrazolo[4′,3′:9,10][1,6]oxazacycloundecino[8,7,6-hi]indole-8-carboxylic Acid] | 1.9 | 8800 | –
